Patent US20250282768A1 (Janssen Pharmaceutica NV, priority 2022, published 2025)

system: p-IKKa levels in L363 (NIK translocated multiple myeloma) cells; test: Assay 2: Effect of compounds on p-IKKa levels in L363 (NIK translocated multiple myeloma) cells; format: cell-based; details: Homo sapiens, L-363, 6 h, read-out: Assay 2 IC50 (nM), p-IKKa (Ser 176/180) in BAFF stimulated L363 cells with MG132, 6 h; average if tested more than once
Method in brief: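 Read-out is p-IKKa Ser176/180 by AlphaLISA SureFire in lysates. Cells were BAFF-primed (250 ng/ml) overnight or left unstimulated, then exposed 6 h at 37 °C to compound with MG132 (10 μM), 0.3% DMSO. IC50 from sigmoidal curve fit, normalized between stimulated and unstimulated controls.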

Row | SMILES | IC50
1 | Cc1nnc(Nc2nccc(-c3cccc(-c4cc([C@]5(O)CCN(C)C5=O)on4)n3)n2)o1 [Example 319, (R)-3-Hydroxy-1-methyl-3-(3-(6-(2-((5-methyl-1,3,4-oxadiazol-2-yl)amino)pyrimidin-4-yl)pyridin-2-yl)isoxazol-5-yl)pyrrolidin-2-one] | > 500 nM
2 | CN1CC[C@@](O)(c2cc(-c3cccc(-c4ccnc(Nc5ccnc(N6CCOCC6)c5)n4)n3)no2)C1=O [Example 320] | < 50 nM
3 | CN1CC[C@@](O)(c2cc(-c3cccc(-c4ccnc(Nc5nnnn5C)n4)n3)no2)C1=O [Example 321, (R)-3-Hydroxy-1-methyl-3-(3-(6-(2-((1-methyl-1H-tetrazol-5-yl)amino)pyrimidin-4-yl)pyridin-2-yl)isoxazol-5-yl)pyrrolidin-2-one] | > 500 nM
4 | COc1cccc(Nc2nccc(-c3cccc(-c4cc([C@]5(O)CCN(C)C5=O)on4)n3)n2)n1 [Example 322, (R)-3-Hydroxy-3-(3-(6-(2-((6-methoxypyridin-2-yl)amino)pyrimidin-4-yl)pyridin-2-yl)isoxazol-5-yl)-1-methylpyrrolidin-2-one] | 50 to 500 nM
5 | CN1CC[C@@](O)(c2cc(-c3cccc(-c4ccnc(Nc5cn(C)cn5)n4)n3)no2)C1=O [Example 323, (R)-3-Hydroxy-1-methyl-3-(3-(6-(2-((1-methyl-1H-imidazol-4-yl)amino)pyrimidin-4-yl)pyridin-2-yl)isoxazol-5-yl)pyrrolidin-2-one] | 50 to 500 nM
6 | CN1CC[C@@](O)(c2cc(-c3cccc(-c4ccnc(Nc5nnc(C(F)F)o5)n4)n3)no2)C1=O [Example 324, (R)-3-(3-(6-(2-((5-(Difluoromethyl)-1,3,4-oxadiazol-2-yl)amino)pyrimidin-4-yl)pyridin-2-yl)isoxazol-5-yl)-3-hydroxy-1-methylpyrrolidin-2-one] | > 500 nM
7 | CN1CC[C@@](O)(c2cn(-c3cccc(-c4ccnc(Nc5cn(C)nc5F)n4)n3)nn2)C1=O [Example 325, (R)-3-(1-(6-(2-((3-Fluoro-1-methyl-1H-pyrazol-4-yl)amino)pyrimidin-4-yl)pyridin-2-yl)-1H-1,2,3-triazol-4-yl)-3-hydroxy-1-methylpyrrolidin-2-one] | 50 to 500 nM
8 | Cc1nccc(Nc2nccc(-c3cccc(-n4cc([C@]5(O)CCN(C)C5=O)nn4)n3)n2)c1F [Example 326, (R)-3-(1-(6-(2-((3-Fluoro-2-methylpyridin-4-yl)amino)pyrimidin-4-yl)pyridin-2-yl)-1H-1,2,3-triazol-4-yl)-3-hydroxy-1-methylpyrrolidin-2-one] | < 50 nM
9 | CN1CC[C@@](O)(c2cn(-c3cccc(-c4ccnc(Nc5cnn(C)c5Cl)n4)n3)nn2)C1=O [Example 327, (R)-3-(1-(6-(2-((5-Chloro-1-methyl-1H-pyrazol-4-yl)amino)pyrimidin-4-yl)pyridin-2-yl)-1H-1,2,3-triazol-4-yl)-3-hydroxy-1-methylpyrrolidin-2-one] | < 50 nM
10 | CN1CC[C@@](O)(c2cc(-c3cccc(-c4ccnc(Nc5cnn(C)c5F)n4)n3)no2)C1=O [Example 329, (R)-3-(3-(6-(2-((5-Fluoro-1-methyl-1H-pyrazol-4-yl)amino)pyrimidin-4-yl)pyridin-2-yl)isoxazol-5-yl)-3-hydroxy-1-methylpyrrolidin-2-one] | < 50 nM
11 | CN1CC[C@@](O)(c2cc(-c3cccc(-c4ccnc(Nc5ccncc5F)n4)n3)no2)C1=O [Example 330, (R)-3-(3-(6-(2-((3-Fluoropyridin-4-yl)amino)pyrimidin-4-yl)pyridin-2-yl)isoxazol-5-yl)-3-hydroxy-1-methylpyrrolidin-2-one] | < 50 nM
12 | CN1CC[C@@](O)(c2cc(-c3cccc(-c4ccnc(Nc5ncccc5F)n4)n3)no2)C1=O [Example 331, (R)-3-(3-(6-(2-((3-Fluoropyridin-2-yl)amino)pyrimidin-4-yl)pyridin-2-yl)isoxazol-5-yl)-3-hydroxy-1-methylpyrrolidin-2-one] | > 500 nM
13 | Cc1ccc(Nc2nccc(-c3cccc(-c4cc([C@]5(O)CCN(C)C5=O)on4)n3)n2)cn1 [Example 332, (R)-3-Hydroxy-1-methyl-3-(3-(6-(2-((6-methylpyridin-3-yl)amino)pyrimidin-4-yl)pyridin-2-yl)isoxazol-5-yl)pyrrolidin-2-one] | 50 to 500 nM
14 | Cc1ccncc1Nc1nccc(-c2cccc(-c3cc([C@]4(O)CCN(C)C4=O)on3)n2)n1 [Example 333, (R)-3-Hydroxy-1-methyl-3-(3-(6-(2-((4-methylpyridin-3-yl)amino)pyrimidin-4-yl)pyridin-2-yl)isoxazol-5-yl)pyrrolidin-2-one] | 50 to 500 nM
15 | Cc1nccc(Nc2nccc(-c3cccc(-c4cc([C@]5(O)CCN(C)C5=O)on4)n3)n2)c1F [Example 334, (R)-3-(3-(6-(2-((3-Fluoro-2-methylpyridin-4-yl)amino)pyrimidin-4-yl)pyridin-2-yl)isoxazol-5-yl)-3-hydroxy-1-methylpyrrolidin-2-one] | < 50 nM
16 | CCn1cc(Nc2nccc(-c3cccc(-n4cc([C@]5(O)CCN(C)C5=O)nn4)n3)n2)cn1 [Example 335, (R)-3-(1-(6-(2-((1-Ethyl-1H-pyrazol-4-yl)amino)pyrimidin-4-yl)pyridin-2-yl)-1H-1,2,3-triazol-4-yl)-3-hydroxy-1-methylpyrrolidin-2-one] | < 50 nM
17 | CO[C@@H]1CCOC[C@H]1Nc1nccc(-c2cccc(-c3cc([C@]4(O)CCN(C)C4=O)on3)n2)n1 [Example 338, (R)-3-Hydroxy-3-(3-(6-(2-(((trans)-4-methoxytetrahydro-2H-pyran-3-yl)amino)pyrimidin-4-yl)pyridin-2-yl)isoxazol-5-yl)-1-methylpyrrolidin-2-one] | > 500 nM
18 | CN1CC[C@@](O)(c2cc(-c3cccc(-c4ccnc(N[C@@H]5COC[C@@H]5F)n4)n3)no2)C1=O [Example 339, (R)-3-(3-(6-(2-(((cis)-4-Fluorotetrahydrofuran-3-yl)amino)pyrimidin-4-yl)pyridin-2-yl)isoxazol-5-yl)-3-hydroxy-1-methylpyrrolidin-2-one] | 50 to 500 nM
19 | CN1CC[C@@](O)(c2cc(-c3cccc(-c4ccnc(NCC5CCOCC5)n4)n3)no2)C1=O [Example 340, (R)-3-Hydroxy-1-methyl-3-(3-(6-(2-(((tetrahydro-2H-pyran-4-yl)methyl)amino)pyrimidin-4-yl)pyridin-2-yl)isoxazol-5-yl)pyrrolidin-2-one] | 50 to 500 nM
20 | CN1CC[C@@](O)(c2cc(-c3cccc(-c4ccnc(N[C@@H]5COC[C@H]5F)n4)n3)no2)C1=O [Example 342, (R)-3-(3-(6-(2-(((trans)-4-Fluorotetrahydrofuran-3-yl)amino)pyrimidin-4-yl)pyridin-2-yl)isoxazol-5-yl)-3-hydroxy-1-methylpyrrolidin-2-one] | 50 to 500 nM
21 | C[C@H](F)CCNc1nccc(-c2cccc(-c3cc([C@]4(O)CCN(C)C4=O)on3)n2)n1 [Example 344, (R)-3-(3-(6-(2-(((S)-3-Fluorobutyl)amino)pyrimidin-4-yl)pyridin-2-yl)isoxazol-5-yl)-3-hydroxy-1-methylpyrrolidin-2-one] | 50 to 500 nM
22 | CN1CC[C@@](O)(c2cc(-c3cccc(-c4ccnc(NC[C@@H]5C[C@@H]5F)n4)n3)no2)C1=O [Example 345, (R)-3-(3-(6-(2-((((cis)-2-Fluorocyclopropyl)methyl)amino)pyrimidin-4-yl)pyridin-2-yl)isoxazol-5-yl)-3-hydroxy-1-methylpyrrolidin-2-one] | 50 to 500 nM
23 | C[C@@H](CF)Nc1nccc(-c2cccc(-c3cc([C@]4(O)CCN(C)C4=O)on3)n2)n1 [Example 348, (R)-3-(3-(6-(2-(((S)-1-Fluoropropan-2-yl)amino)pyrimidin-4-yl)pyridin-2-yl)isoxazol-5-yl)-3-hydroxy-1-methylpyrrolidin-2-one] | 50 to 500 nM
24 | CN1CC[C@@](O)(c2cc(-c3cccc(-c4ccnc(N[C@H]5C[C@H](F)C5)n4)n3)no2)C1=O [Example 349, (R)-3-(3-(6-(2-(((1r,3R)-3-Fluorocyclobutyl)amino)pyrimidin-4-yl)pyridin-2-yl)isoxazol-5-yl)-3-hydroxy-1-methylpyrrolidin-2-one] | 50 to 500 nM
25 | CN1CC[C@@](O)(c2cc(-c3cccc(-c4ccnc(NC5CC56CCOC6)n4)n3)no2)C1=O (stereo partly drawn) [Example 350, (3R)-3-(3-(6-(2-((5-Oxaspiro[2.4]heptan-1-yl)amino)pyrimidin-4-yl)pyridin-2-yl)isoxazol-5-yl)-3-hydroxy-1-methylpyrrolidin-2-one] | > 500 nM
26 | CO[C@H]1C[C@@H](Nc2nccc(-c3cccc(-c4cc([C@]5(O)CCN(C)C5=O)on4)n3)n2)C1 [Example 351, (R)-3-Hydroxy-3-(3-(6-(2-(((1s,3S)-3-methoxycyclobutyl)amino)pyrimidin-4-yl)pyridin-2-yl)isoxazol-5-yl)-1-methylpyrrolidin-2-one] | 50 to 500 nM
27 | CCO[C@@H]1COC[C@H]1Nc1nccc(-c2cccc(-c3cc([C@]4(O)CCN(C)C4=O)on3)n2)n1 [Example 352, (R)-3-(3-(6-(2-(((trans)-4-Ethoxytetrahydrofuran-3-yl)amino)pyrimidin-4-yl)pyridin-2-yl)isoxazol-5-yl)-3-hydroxy-1-methylpyrrolidin-2-one] | 50 to 500 nM
28 | C[C@H](CF)Nc1nccc(-c2cccc(-c3cc([C@]4(O)CCN(C)C4=O)on3)n2)n1 [Example 353, (R)-3-(3-(6-(2-(((R)-1-Fluoropropan-2-yl)amino)pyrimidin-4-yl)pyridin-2-yl)isoxazol-5-yl)-3-hydroxy-1-methylpyrrolidin-2-one] | 50 to 500 nM
29 | CO[C@@H]1COC[C@H]1Nc1nccc(-c2cccc(-c3cc([C@]4(O)CCN(C)C4=O)on3)n2)n1 [Example 354, (R)-3-Hydroxy-3-(3-(6-(2-(((3R,4S)-4-methoxytetrahydrofuran-3-yl)amino)pyrimidin-4-yl)pyridin-2-yl)isoxazol-5-yl)-1-methylpyrrolidin-2-one] | 50 to 500 nM
